Data on 16 compounds can be found in ChEMBL document CHEMBL1140322, “New pyrrolo[2,1-f]purine-2,4-dione and imidazo[2,1-f]purine-2,4-dione derivatives as potent and selective human A3 adenosine receptor antagonists” (J Med Chem, 2005).

One assay deals with T1, Adenosine receptor A1 (Homo sapiens, UniProt P30542).
T1 sequence (P30542 whole entry): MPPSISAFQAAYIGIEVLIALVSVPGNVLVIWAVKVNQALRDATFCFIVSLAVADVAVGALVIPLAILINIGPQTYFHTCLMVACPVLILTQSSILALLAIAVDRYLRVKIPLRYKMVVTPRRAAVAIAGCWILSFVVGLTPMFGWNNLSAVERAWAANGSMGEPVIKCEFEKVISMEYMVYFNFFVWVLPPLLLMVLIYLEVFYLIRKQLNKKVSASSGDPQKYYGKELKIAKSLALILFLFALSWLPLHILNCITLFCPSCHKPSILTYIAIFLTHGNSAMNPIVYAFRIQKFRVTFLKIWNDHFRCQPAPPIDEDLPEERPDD
Nature of the assay: Inhibition of [3H]DPCPX binding to human adenosine A1 receptor expressed in CHO cells. In kind it is cell-based.

Assay [1] deals with Adenosine receptors; A1 & A3 (Homo sapiens) (UniProt P30542+P0DMS8). In words: Relative binding affinity for human adenosine A1 and A3 receptors. In kind it is protein assay.
The target of assay [2] is Adenosine receptors; A2a & A3 (Homo sapiens) (UniProt P0DMS8+P29274). Nature of the assay: Relative binding affinity for human adenosine A2a and A3 receptors. In kind it is protein assay.
The target in another assay is Adenosine receptor A2a (Homo sapiens, UniProt P29274). In words: Inhibition of [3H]-ZM 241385 binding to human adenosine A2a receptor expressed in CHO cells. In kind it is cell-based.
Assay [3] has as its target Adenosine receptors; A2b & A3 (Homo sapiens) (UniProt P29275+P0DMS8). Nature of the assay: Relative binding affinity for human adenosine A2b and A3 receptors. In kind it is protein assay.
Another assay addresses T2, Adenosine receptor A2b (Homo sapiens, UniProt P29275).
T2 sequence (P29275 whole entry): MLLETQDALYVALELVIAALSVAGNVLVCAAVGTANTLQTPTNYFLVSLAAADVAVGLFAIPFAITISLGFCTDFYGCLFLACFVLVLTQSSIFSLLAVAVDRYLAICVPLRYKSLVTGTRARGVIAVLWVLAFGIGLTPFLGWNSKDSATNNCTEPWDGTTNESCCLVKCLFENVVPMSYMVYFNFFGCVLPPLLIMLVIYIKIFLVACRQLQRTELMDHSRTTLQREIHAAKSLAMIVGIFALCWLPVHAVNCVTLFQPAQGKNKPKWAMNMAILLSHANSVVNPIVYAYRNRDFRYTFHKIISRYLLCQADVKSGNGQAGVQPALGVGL
Nature of the assay: Inhibition of 100 nM NECA-stimulated cAMP production in CHO cells expressing human adenosine A2B receptor. In kind it is functional, cell-based. In general terms: Changes in cAMP serve as a functional read-out for many G protein-coupled receptors.

Usually Ki stands for a dissociation constant, usually derived from enzyme kinetics or from competition with a known ligand. The low end stands for a stronger hold on the target, the high end for a looser hold on the target. As a reminder, the IC50 is the midpoint of a concentration-inhibition curve.

Chain of Adenosine receptor A2a (P29274 whole entry): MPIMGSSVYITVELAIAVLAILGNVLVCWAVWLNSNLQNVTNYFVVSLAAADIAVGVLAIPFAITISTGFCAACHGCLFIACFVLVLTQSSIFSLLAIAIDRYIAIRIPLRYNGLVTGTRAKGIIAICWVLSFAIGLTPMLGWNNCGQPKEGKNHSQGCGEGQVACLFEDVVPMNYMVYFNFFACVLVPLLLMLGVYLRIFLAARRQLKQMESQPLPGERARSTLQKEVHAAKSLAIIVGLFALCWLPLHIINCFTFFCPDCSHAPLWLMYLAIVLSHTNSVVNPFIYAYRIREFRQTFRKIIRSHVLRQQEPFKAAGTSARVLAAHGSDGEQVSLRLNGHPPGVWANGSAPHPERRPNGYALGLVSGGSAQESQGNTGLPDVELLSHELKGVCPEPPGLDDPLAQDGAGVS
Chain of Adenosine receptors; A1 & A3 (Homo sapiens) (P0DMS8 whole entry, looked up, one chain of several): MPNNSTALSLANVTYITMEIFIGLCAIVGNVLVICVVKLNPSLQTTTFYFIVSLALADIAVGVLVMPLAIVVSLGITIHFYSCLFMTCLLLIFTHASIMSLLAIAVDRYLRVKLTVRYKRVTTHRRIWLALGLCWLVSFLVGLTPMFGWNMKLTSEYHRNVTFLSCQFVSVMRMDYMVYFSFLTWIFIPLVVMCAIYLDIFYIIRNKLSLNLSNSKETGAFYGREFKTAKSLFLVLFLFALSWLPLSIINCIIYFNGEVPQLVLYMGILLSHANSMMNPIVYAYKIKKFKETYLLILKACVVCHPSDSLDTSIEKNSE

`CCCn1c(=O)c2c(nc3[nH]c(-c4ccc(F)cc4)cn32)n(Cc2ccccc2)c1=O`: the Ki on Adenosine receptor A1 and on Adenosine receptor A2a was > 1000 nM in each case. In addition, the Selectivity in assay [1] and in assay [2] was > 45 each time.

For `CCCn1c(=O)c2c(nc3n2CC(C)=C3)n(Cc2ccccc2)c1=O`, the Selectivity in assay [3] was 50; in assay [1] it was > 125; in assay [2] it was > 125. Besides, the Ki on Adenosine receptor A1 and at Adenosine receptor A2a was > 1000 nM each time.

Regarding `CCCn1c(=O)c2c(nc3n2CC(c2ccccc2)=C3)n(Cc2ccccc2)c1=O`, the Ki on Adenosine receptor A1 and at Adenosine receptor A2a was > 1000 nM each time. In addition, the Selectivity in assay [1] and in assay [2] was > 5 each time.

For `CCCn1c(=O)c2c(nc3[nH]c(CC)cn32)n(Cc2ccccc2)c1=O`, the Selectivity in assay [3], in assay [1] and in assay [2] was > 67 throughout. In addition, the Ki at Adenosine receptor A1 and on Adenosine receptor A2a was > 1000 nM throughout. The IC50 on Adenosine receptor A2b was > 1000 nM.

`CCCn1c(=O)c2c(nc3[nH]c(C(C)C)cn32)n(Cc2ccccc2)c1=O`: the Selectivity was > 32 in assay [3], > 15 in assay [1] and > 32 in assay [2]. On Adenosine receptor A2a, the Ki was > 1000 nM. The IC50 against Adenosine receptor A2b was > 1000 nM.

Regarding `CCCn1c(=O)c2c(nc3[nH]c(C)cn32)n(Cc2ccccc2)c1=O`, at Adenosine receptor A2b, the IC50 is > 1000 nM.

As to `CCCn1c(=O)c2c(nc3n2C(C)C(C)=C3)n(Cc2ccccc2)c1=O` (stereo not given), the Selectivity in assay [3], in assay [1] and in assay [2] was > 13 throughout. Also, the Ki at Adenosine receptor A1 and at Adenosine receptor A2a was > 1000 nM in each case. For the same compound, the IC50 against Adenosine receptor A2b is > 1000 nM.

As to `CCCn1c(=O)c2c(nc3[nH]c(-c4ccc(OC)cc4)cn32)n(Cc2ccccc2)c1=O`, the Ki on Adenosine receptor A1 and on Adenosine receptor A2a was > 1000 nM throughout. The Selectivity in assay [1] and in assay [2] was > 18 each time.

Regarding `CCCn1c(=O)c2c(nc3[nH]c(C)c(C)n32)n(Cc2ccccc2)c1=O`, the Selectivity in assay [3], in assay [1] and in assay [2] was > 28 throughout. Further, the Ki at Adenosine receptor A1 and at Adenosine receptor A2a was > 1000 nM each time. In addition, the IC50 at Adenosine receptor A2b is > 1000 nM.

As for `CCCn1c(=O)c2c(nc3[nH]c(-c4ccccc4)cn32)n(Cc2ccccc2)c1=O`, the Ki at Adenosine receptor A1 and at Adenosine receptor A2a was > 1000 nM throughout. The Selectivity in assay [1] and in assay [2] was > 9 in each case.

In the case of `CCCn1c(=O)c2c(nc3[nH]c(-c4ccc(-c5ccccc5)cc4)cn32)n(Cc2ccccc2)c1=O`, the Ki at Adenosine receptor A1 and at Adenosine receptor A2a was > 1000 nM each time.

On to `CCCn1c(=O)c2c(nc3[nH]c(CC)c(C)n32)n(Cc2ccccc2)c1=O`, for which the Selectivity in assay [3], in assay [1] and in assay [2] was > 17 throughout. The Ki at Adenosine receptor A1 and on Adenosine receptor A2a was > 1000 nM each time. Also, the IC50 against Adenosine receptor A2b was > 1000 nM.

On to `CCCn1c(=O)c2c(nc3n2CC(CC)=C3)n(Cc2ccccc2)c1=O`, for which the IC50 on Adenosine receptor A2b was > 1000 nM.

Regarding `CCCn1c(=O)c2c(nc3[nH]c(C4CCCCC4)cn32)n(Cc2ccccc2)c1=O`, the Ki at Adenosine receptor A1 and at Adenosine receptor A2a was > 1000 nM each time. Moreover, the Selectivity in assay [1] and in assay [2] was > 2 each time. Besides, the IC50 against Adenosine receptor A2b is > 1000 nM.

For the compound `CCCn1c(=O)c2c(nc3[nH]c(C(C)(C)C)cn32)n(Cc2ccccc2)c1=O`, the Selectivity in assay [3], in assay [1] and in assay [2] was > 10 in each case. In addition, the Ki on Adenosine receptor A1 and at Adenosine receptor A2a was > 1000 nM each time. Also, the IC50 at Adenosine receptor A2b was > 1000 nM.

`CCCn1c(=O)c2c(nc3[nH]c(C4CC4)cn32)n(Cc2ccccc2)c1=O`: the Selectivity in assay [3] is > 44; in assay [1], 15; in assay [2], > 44. On Adenosine receptor A2a, the Ki was > 1000 nM. Further, the IC50 at Adenosine receptor A2b was > 1000 nM.
